Experimental data published in patent US11505592B2, “Diagnosis and therapy of multiple sclerosis” (PRINDEX S.R.L., priority 2015, dated 2022).

System: 5HT2a receptor downstream signaling in MO3-13 cells
Assay: Western blotting of proteins downstream of the 5HT2a receptor in MO3-13 cells
Type: cell-based, human
Description: The same membrane was also incubated with α-Tubulin antibody to show the protein loading.
Western blotting analysis of DUOX1/2 expression levels in MO3-13 cells harvested for 18 h in medium containing 0.2% FBS, preincubated with DDSK (50 uM) for 30 min in serum-free medium and then stimulated for 30 min with IgG (200 μg/ml) purified from serum of Control (IgCtr) or MS (IgMS) patients.
(§1) Western blotting analysis of P-ERK1/2 expression levels in MO3-13 cells harvested for 18 h in medium containing 0.2% FBS, preincubated with DDSK (50 uM) for 30 min in serum-free medium and then stimulated for 30 min with IgG (200 μg/ml) purified from serum of Control (Ig Ctr) or MS (IgMS) patients.
Western blotting analysis of NOX3 expression levels in MO3-13 cells harvested for 18 h in medium containing 0.2% FBS, preincubated with DDSK (50 uM) for 30 min in serum-free medium and then stimulated for30 min with IgG (200 μg/ml) purified from serum of Control (IgCtr) or MS (IgMS) patients.
as §1, with “of H-Ras” for “of P-ERK1/2”, “stimulated for30” for “stimulated for 30”, “patients. The same membrane was incubated with α-Tubulin antibody to show the protein loading.” for “patients.”
Total cells lysates were obtained in RIPA buffer (50 mM Tris-HCl, pH 7.5, NaCl 150 mM, 1% NP40, 0.5% deoxycholate, 0.1% SDS) containing 2.5 mM Na-pyrophosphate, 1 mM β-glycerophosphate, 1 mM NaVO4, 1 mM NaF, 0.5 mM PMSF, and a cocktail of protease inhibitors (Roche, USA). The cells were kept for 15 min at 4° C. and disrupted by repeated aspiration through a 21-gauge needle. Cell lysates were centrifuged for 10 min at 13000 rpm and the pellets were discarded. Fifty micrograms of total proteins were subjected to SDS-PAGE under reducing conditions. […] Membranes were placed in 5% non-fat milk in […], 0.5% Tween 20 (TBST) at 4° C. for 2 h to block the nonspecific binding sites. Filters were incubated with specific antibodies before being washed three times in TBST and then incubated with a peroxidase-conjugated secondary antibody (Santa Cruz). After washing with TBST, peroxidase activity was detected with the ECL system (GE-Healthcare, UK).
The filters were also probed with an anti α-tubulin antibody (Sigma, USA). […] Densitometric values were normalized to α-tubulin.

[1] = 50 uM peptide 30 min, then IgMS 200 μg/ml 30 min

Sequence: DDSKVFKEGS
- effect of peptide preincubation on IgMS-increased DUOX1/2 protein levels [1]: reverted the effect
- effect of peptide preincubation on IgMS-increased HaRas protein levels [1]: reverted the effect
- effect of peptide preincubation on IgMS-increased NOX3 protein levels [1]: reverted the effect
- effect of peptide preincubation on IgMS-increased P-ERK1/2 protein levels [1]: reverted the effect
- effect of peptide on protein levels (DUOX1/2, P-ERK1/2, NOX3, HaRas) in cells incubated with IgG from control subjects (50 uM peptide, IgG control 200 μg/ml): did not significantly modify
